Reference: patent US11254700B2, “GSK-3β inhibitors and use thereof in methods of treatment” (UNIVERSITY OF HAWAII, priority 2017, dated 2022)
Entries after “also recorded” stand apart in the source; their conditions may differ.

Key:
GSK-3β = GSK-3β (Homo sapiens, UniProt P49841); experiment: Kinase luminescent assay (ADP-Glo), GSK-3β inhibition; format: biochemical; conditions: 25 μM ATP, 1 hour, room temperature; mean of quadruplicate of two experiments; read-out: IC50 against GSK-3β
Experimental: Kinase Luminescent Assay.
Kinase inhibition was assessed with the ADP-Glo Kinase Assay. […] The reaction mixture was incubated for 1 hour at room temperature followed by the addition of the ADP-Glo′ reagents according to the manufacturer's protocol. The kinase inhibitor staurosporine was used at 1 μM as a reference control. Each data point was collected in quadruplicate of two independent experiments.

in vitro = conditions: PAMPA, 5 h, 20 μM, pH 7.4
In short: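 Passive diffusion from donor to acceptor compartment through a tri-layer phospholipid pre-coated membrane, measured in quadruplicate.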

Aβ42 = experiment: Brain Aβ42 by ELISA; format: in vivo, mouse; conditions: vs model group
Experimental: The backgrounds of all mice (APP/PS1 dual transgenic mice and wild-type mice with littermates) were C57/B6. Transgenic mice were randomly divided into three groups (n=20 for each group), and wild-type mice were used as controls (n=20). The control group and one group of transgenic mice (model group) were given sterilized ultrapure water, and the other two groups of transgenic mice received low- and high-dose Isoorientin (20 and 50 mg/kg, respectively) via intragastric administration for 60 days. Throughout the study-period, animals were housed in a controlled environment (temperature, 22° C.; humidity, 50-60%, 12-hour light/12-hour dark schedules), with free access to rodent chow and water. […] For quantitation purposes, a highly specific and sensitive mouse Aβ42 ELISA kit was used (Invitrogen Corporation, Carlsbad, Calif.). Brain tissue protein was extracted by homogenizing about 100 mg brain tissue with an 8-fold mass quantity of cold 5 M guanidine-HCl and 50 mM Tris (pH 8.0), and incubating the homogenate at room temperature for 3.5 hours. […] Soluble and insoluble brain samples including cortex and hippocampus were analyzed for Aβ levels using the mouse Aβ42 ELISA kit, according to the manufacturer's instructions. […] The obtained values were corrected for the wet weight of each brain sample and expressed as μg/mg brain.

[1] = system: Aβ plaques and Iba1-positive microglia; experiment: Immunofluorescence labeling (Aβ+IBA1); format: in vivo, mouse; conditions: APP/PS1 mice
Experimental: The backgrounds of all mice (APP/PS1 dual transgenic mice and wild-type mice with littermates) were C57/B6. Transgenic mice were randomly divided into three groups (n=20 for each group), and wild-type mice were used as controls (n=20). The control group and one group of transgenic mice (model group) were given sterilized ultrapure water, and the other two groups of transgenic mice received low- and high-dose Isoorientin (20 and 50 mg/kg, respectively) via intragastric administration for 60 days. Throughout the study-period, animals were housed in a controlled environment (temperature, 22° C.; humidity, 50-60%, 12-hour light/12-hour dark schedules), with free access to rodent chow and water. After a Morris water maze test, mice were perfused with cold phosphate-buffered saline (PBS), brain tissues were dissected and kept frozen at −80° C. until further analysis. […] Double-labelling procedures were performed to determine the relationship between Iba1-positive and Aβ-positive plaques. […] Sections were then blocked with 5% BSA in 0.01% TRITON X-100 in TBS (TBST) for 1 hour at room temperature. […] Representative images were obtained by fluorescence microscope (Leica).

amyloid plaques = experiment: Thioflavin-S staining of brain plaques; format: in vivo, mouse; design: dose or concentration left out as unconfirmed; conditions: more pronounced with increasing dose
Experimental: The backgrounds of all mice (APP/PS1 dual transgenic mice and wild-type mice with littermates) were C57/B6. Transgenic mice were randomly divided into three groups (n=20 for each group), and wild-type mice were used as controls (n=20). […] Throughout the study-period, animals were housed in a controlled environment (temperature, 22° C.; humidity, 50-60%, 12-hour light/12-hour dark schedules), with free access to rodent chow and water. After a Morris water maze test, mice were perfused with cold phosphate-buffered saline (PBS), brain tissues were dissected and kept frozen at −80° C. until further analysis. […] The brain tissue was then embedded in an OCT agent and placed at −80° C. for storage until use. […] The Thio-S staining procedure was according to known methods (Maiti, et al. (2016) Histochem. Cell Biol. 146(5):609-625). Briefly, Thio-S solution at 0.1% (w/v) was prepared by dissolving 0.1 gram of Thioflavin-S(Sigma-Aldrich) in 50% ethanol (v/v). The tissue sections were washed three times with PBS for five minutes each time. The sections were incubated with 0.1% Thio-S for 10 minutes, dipping them three times in 50% ethanol (v/v) for 10 minutes each time, and finally washing once in PBS, before being mounted, as described above. The sections were visualized using a fluorescence microscope (Leica, Germany), with excitation/emission filters (480/550 nm).

Chain of GSK-3β (P49841 whole entry): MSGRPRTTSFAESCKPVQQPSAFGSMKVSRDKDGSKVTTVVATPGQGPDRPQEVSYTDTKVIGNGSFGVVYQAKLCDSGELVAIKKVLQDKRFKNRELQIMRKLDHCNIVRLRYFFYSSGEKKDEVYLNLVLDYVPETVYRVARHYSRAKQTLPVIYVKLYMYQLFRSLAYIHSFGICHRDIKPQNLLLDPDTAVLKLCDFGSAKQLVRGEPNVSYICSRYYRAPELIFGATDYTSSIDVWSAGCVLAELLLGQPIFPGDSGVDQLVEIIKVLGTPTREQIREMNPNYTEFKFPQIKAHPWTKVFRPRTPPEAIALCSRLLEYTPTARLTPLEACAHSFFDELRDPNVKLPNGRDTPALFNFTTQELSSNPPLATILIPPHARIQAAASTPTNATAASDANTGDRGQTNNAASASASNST

O=c1cc(-c2ccc(O)c(O)c2)oc2cc(O)c([C@@H]3O[C@H](CO)[C@@H](O)[C@H](O)[C@H]3O)c(O)c12 [Compound 1, isoorientin]
IC50 (GSK-3β): 185 µM | Pe (in vitro): 0.51 ± 0.01 ×10^−6 cm/s | R (percent recovery) (in vitro): 48% | Aβ42 in brain (cortex+hippocampus) (Aβ42; high-dose group 50 mg/kg, oral, 60 days): significantly lower; also recorded: significant decrease | Aβ42 in brain (cortex+hippocampus) (Aβ42; low-dose group): no statistically significant difference | Aβ plaques in cortex and hippocampus [1]: reduced | activated aggregated Iba1-positive cells around plaques [1]: also reduced | thioflavin-S-positive plaques (amyloid plaques): reduced
